According to ChEMBL document CHEMBL5247657 (J Med Chem, 2023):

Experiments:
[1] = Tmax in Sprague-Dawley rat at 5 mg/kg, po measured upto 24 hrs by LC-MS/MS analysis; assay type: ADME, organism-based; conditions: in vivo
[2] = in vivo; conditions: Sprague-Dawley, rat, po, 5 mg/kg
[3] = in vivo; conditions: Beagle, dog, po
[4] = in vivo; conditions: Beagle, dog, iv, 1 mg/kg
[5] = in vivo; conditions: Beagle, dog, po; remark: listed apart in the source
[6] = Volume of distribution at steady state in Beagle dog at 1 mg/kg, iv measured upto 24 hrs by LC-MS/MS analysis; assay type: ADME, organism-based, Canis lupus familiaris; conditions: in vivo, read-out: Vdss
[7] = in vivo; conditions: Beagle, dog, po; remark: listed apart in the source
[8] = Half-life in Beagle dog at 1 mg/kg, iv measured upto 24 hrs by LC-MS/MS analysis; assay type: ADME, organism-based, Canis lupus familiaris; conditions: in vivo
[9] = Tmax in Beagle dog at […], po measured upto 24 hrs by LC-MS/MS analysis; assay type: ADME, organism-based, Canis lupus familiaris; conditions: in vivo, dose 2.5 mg/kg
[10] = Volume of distribution at steady state in Sprague-Dawley rat at 1 mg/kg, iv measured upto 24 hrs by LC-MS/MS analysis; assay type: ADME, organism-based; conditions: in vivo, read-out: Vdss
[11] = Half-life in Sprague-Dawley rat at 1 mg/kg, iv measured upto 24 hrs by LC-MS/MS analysis; assay type: ADME, organism-based; conditions: in vivo

## C=CC(=O)N1CCC([C@@H]2CCNc3c(C(N)=O)c(-c4cc(OC)c(C)c(OC)c4)nn32)CC1
[1]
  Tmax: 15 min
[2]
  AUC(0-inf) at 24 h: 964 ng·h/mL
[3]
  Cmax at 24 h: 1250 ng/mL
[4]
  clearance at 24 h: 6.89 mL/min/kg
[5]
  AUC(0-inf) at 24 h: 2640 ng·h/mL
[6]
  Vd: 0.74 L/kg
[7]
  bioavailability at 24 h: 43%
[8]
  half-life: 150 min
[9]
  Tmax at 24 h: 25.2 min
[10]
  Vd: 0.9 L/kg
[11]
  half-life: 36 min
